This series can be described thus: passive permeability, PAMPA, ADME assay (AID 1508612). Conditions: pH 7.4, 30.0 min, 50.0 µM. (PAMPA measures passive passage across an artificial lipid membrane.)

Bounds are passed on as bounds.

Here are results for 94 compounds from PubChem BioAssay AID1508612.

One may read the Papp as a coefficient for how fast a substance crosses the barrier.

On to `Fc1ccc(-c2ccc(Nc3nc(-c4ccncc4)nc4ccccc34)cc2F)cc1`, for which the apparent permeability (Papp) is 93.6 ×10⁻⁶ cm/s.
For `Cc1ccc(-c2cc(C(=O)Nc3ncco3)c3ccccc3n2)cc1C` the value was 798 ×10⁻⁶ cm/s.
Regarding `COc1ccc(NC(=O)c2c(C)cccc2C)cc1[S+](=O)([O-])N1CCCCCC1`, the Papp came out at 738 ×10⁻⁶ cm/s.
The value for `O=C(COc1ccccc1)NCC(c1cccs1)S(=O)(=O)c1ccc(Cl)cc1` (centres undefined) was 592 ×10⁻⁶ cm/s; that for `NC(=O)C1CCN(c2cc(-c3ccc4c(c3)OCCCO4)ncn2)CC1` was 37 ×10⁻⁶ cm/s; that for `Cc1ccc(CN2CCOC[C@H]2c2ncc(-c3cccc(F)c3)[nH]2)cc1` was > 1000 ×10⁻⁶ cm/s.
`CCCCn1cnc2cc(NC(=O)c3cc(OC)c(OC)c(OC)c3)ccc21`: the Papp was determined as 693 ×10⁻⁶ cm/s.
For `CC(=O)c1c(C)[nH]c(C(=O)Nc2ccc(C)c(S(=O)(=O)Nc3ccc(Br)cc3)c2)c1C`, the Papp turned out to be 108 ×10⁻⁶ cm/s. Compared with the last compound, the Papp is about 6.4-fold lower.
The value for `Cc1ccc(S(=O)(=O)Nc2cnccc2C(=O)Nc2nc(-c3cc4ccccc4o3)cs2)cc1` was 2.48 ×10⁻⁶ cm/s.
For `CN(C)S(=O)(=O)c1cccc(NC(=O)c2ccc[nH]2)c1`, the Papp came out at 179 ×10⁻⁶ cm/s.
Take `CN1CCN(CCCN2c3ccccc3Sc3ccc(S(=O)(=O)N(C)C)cc32)CC1`: the Papp is > 1000 ×10⁻⁶ cm/s.
The compound `O=C(c1ccc2c(c1)ncn2-c1cccc(Cl)c1)N1CCCCC1` returned a Papp of 895 ×10⁻⁶ cm/s.
For the compound `CC(=O)c1c(C)[nH]c(C(=O)Nc2ccc(OCCCN(C)C)c(S(=O)(=O)Nc3ccc(Br)cc3)c2)c1C`, the apparent permeability coefficient (Papp) amounted to 74.7 ×10⁻⁶ cm/s.
Consider `O=C(Nc1cc(C(F)(F)F)ccc1N1CCOCC1)c1n[nH]c(=O)c2ccccc12`, for which the Papp was found to be 53.5 ×10⁻⁶ cm/s.
`O=C1NCc2cc(-c3cc4c(ccn4Cc4ccncc4)c(N4CCOCC4)n3)ccc21` gave a Papp of 189 ×10⁻⁶ cm/s.
The compound `O=C(NCCCn1ccnc1)c1nc(-c2ccccc2)cc2[nH]ccc12` had a Papp of 597 ×10⁻⁶ cm/s.
For `CC1(C)CCC(CN2CCN(c3ccc(C(=O)NS(=O)(=O)c4ccc(NCC5CCOCC5)c([N+](=O)[O-])c4)c(Oc4cnc5[nH]ccc5c4)c3)CC2)=C(c2ccc(Cl)cc2)C1` the value was 1.5 ×10⁻⁶ cm/s; for `Cc1cnc(-c2ccccc2C2COC2)nc1NCC1CCN(c2cccnc2)CC1`, 3.48 ×10⁻⁶ cm/s.
On to `Oc1ccc(CNc2ccccc2Br)c2cccnc12`, for which the Papp is < 1 ×10⁻⁶ cm/s.
Turning to `Cc1cccc(C)c1NC(=O)c1nc(SC(C)C)ncc1Cl`, the Papp is > 1000 ×10⁻⁶ cm/s.
`O=C(O)c1ccncc1Nc1nn(CCN2CCC(F)(F)CC2)c2ccc(F)cc12` returned a Papp of 1.2 ×10⁻⁶ cm/s.
For the compound `O=C(Cc1ccc(-c2csc(Nc3ccc(F)cc3)n2)s1)N1CCOCC1`, the Papp was > 1000 ×10⁻⁶ cm/s.
`Cc1ccc(-c2cc(C(=O)Nc3ccc(S(=O)(=O)NCc4nccs4)cc3)c3ccccc3n2)cc1C` gave a Papp of 6 ×10⁻⁶ cm/s.
Regarding `CC1(C)CC2CC(C)(CN2S(=O)(=O)c2ccc(C(=O)Nc3ccc(Cl)cc3)cc2)C1` (centres undefined), the apparent permeability coefficient (Papp) was > 1000 ×10⁻⁶ cm/s.
With `COc1cc(Nc2nc(-c3ccncc3)nc3ccccc23)ccc1Cl`, the Papp was found to be 19.8 ×10⁻⁶ cm/s.
`Cn1c2ccccc2c(=O)c2c(=O)n(-c3ccccc3)c(C3CCCCC3)nc21`: the Papp stood at 440 ×10⁻⁶ cm/s. This Papp lies about 22-fold higher than the previous one.
In the case of `CCOc1ccc(N2CC(c3nc(-c4cc(OC)c(OC)c(OC)c4)no3)CC2=O)cc1` (centres undefined), the Papp is > 1000 ×10⁻⁶ cm/s.
For `Cc1ccc(N(C)S(=O)(=O)c2ccc(-c3cnc(C4CC4)o3)cc2)cc1`, the Papp was > 1000 ×10⁻⁶ cm/s.
With `Cc1ccc(OCCn2c(CCNC(=O)C3CCCCC3)nc3ccccc32)cc1`, the Papp was > 1000 ×10⁻⁶ cm/s.
With `O=C(c1ccc2c(c1)ncn2-c1cccc(C(F)(F)F)c1)N1CCCCC1`, the Papp was > 1000 ×10⁻⁶ cm/s.
In turn, `CSc1ncc(Cl)c(C(=O)Nc2c(C)cccc2C)n1` showed a Papp of 508 ×10⁻⁶ cm/s.
As to `Nc1ncnc(N2CCc3ccccc32)c1[N+](=O)[O-]`, the Papp worked out at 295 ×10⁻⁶ cm/s.
The value for `CCC[C@@H]1CN(C(=O)c2ccc(-c3ccc(C)o3)cc2)C[C@H]1NC(C)=O` was > 1000 ×10⁻⁶ cm/s; that for `CCOC(=O)c1c(NC(=O)CN2CCCCC2)sc2c1CCN(C(=O)OCC)C2` was > 1000 ×10⁻⁶ cm/s; that for `COc1ccc(Nc2cnc3ccc(-c4ccc(OC)c(OC)c4)nn23)cc1` was 396 ×10⁻⁶ cm/s.
The value for `CCOC(=O)C1CCN(C(=O)Nc2ccc3c(c2)nc(C)n3C)CC1` was 38.4 ×10⁻⁶ cm/s; that for `CC(=O)N1CCC2(CCCN(c3ccc(-c4ccccc4)cc3)C2)CC1` was > 1000 ×10⁻⁶ cm/s; that for `Cc1ccc(-c2cc(C(=O)NC3CCCCC3)c3ccccc3n2)cc1` was > 1000 ×10⁻⁶ cm/s.
In turn, `Fc1ccc(Nc2nc(-n3ccnc3)nc3ccccc23)cc1F` returned an apparent permeability (Papp) of 223 ×10⁻⁶ cm/s.
The compound `COc1ccc(S(=O)(=O)N(C(=O)C(C)C)c2ccc3oc(=O)sc3c2)cc1` had a Papp of 658 ×10⁻⁶ cm/s. This Papp is about 3-fold higher than that of the compound before.
As for `O=C(c1ccccc1)N1CCN(c2nc(-c3ccc(Br)cc3)cs2)CC1`, the Papp is 743 ×10⁻⁶ cm/s.
The compound `Cc1cc(-c2nnc3n2CCCCC3)c(C)n1-c1ccc([N+](=O)[O-])cc1` had a Papp of 20.8 ×10⁻⁶ cm/s.
Turning to `COc1ccc(NC(=O)c2[nH]c(C)c(C(C)=O)c2C)cc1S(=O)(=O)N1CCCCC1`, the Papp was determined as 757 ×10⁻⁶ cm/s.
In turn, `C#CCOc1ccc(-c2nnc(Nc3ccc(NC(C)=O)cc3)c3ccccc23)cc1` had a Papp of 502 ×10⁻⁶ cm/s.
The value for `COc1cc(Cl)cn2c(-c3cccc(NC4CNC4)n3)cnc12` was 6.1 ×10⁻⁶ cm/s; that for `Cc1ccnc(NC(=S)N2CCN(c3ccc(Cl)cc3Cl)CC2)c1` was 868 ×10⁻⁶ cm/s.
Consider `NC(=O)C1CCN(c2ncc(-c3cccc(F)c3)s2)CC1`, for which the Papp is 896 ×10⁻⁶ cm/s.
In the case of `COc1ccc(C(=O)Nc2ccc3c(c2)N(C2CCCC2)C(=O)c2ccccc2S3)cc1OC`, the Papp amounted to 15.7 ×10⁻⁶ cm/s.
Consider `Fc1cc(Nc2nc(-c3ccncc3)nc3ccccc23)ccc1OCC(F)(F)F`, for which the Papp came out at 58.8 ×10⁻⁶ cm/s.
`CCCc1nnc(NC(=O)c2nc(S(=O)(=O)Cc3ccc(C)cc3)ncc2Cl)s1` returned an apparent permeability coefficient (Papp) of 89.4 ×10⁻⁶ cm/s.
The compound `COc1cnccc1-c1nc(Nc2ccc(F)c(F)c2)c2ccccc2n1` returned an apparent permeability (Papp) of 3.6 ×10⁻⁶ cm/s.
For `O=C(O)Cc1ccc2oc(-c3ccc(NC(=O)/C=C/c4ccc(Br)cc4)c(F)c3)nc2c1`, the Papp came out at 6.63 ×10⁻⁶ cm/s. This Papp is about 1.8-fold higher than that of the compound before.
`CCOC(=O)Nc1ccc(NCc2ccc(F)cc2)nc1N` showed a Papp of 68.3 ×10⁻⁶ cm/s.
In the case of `CCCN1C(CC(C)C)=NS(=O)(=O)c2cc(NC(=O)c3ccco3)ccc21`, the Papp stood at 427 ×10⁻⁶ cm/s.
The value for `N=c1c2ccccc2nnn1-c1ccc(C(F)(F)F)cc1` was 148 ×10⁻⁶ cm/s.
Compound `CCOc1ccc(-c2nnc(SCC(=O)NCc3ccccc3Cl)o2)cc1` had a Papp of 5.1 ×10⁻⁶ cm/s.
`Cc1ccc2c(c1)/C(=C\c1cc(Cl)c(O)c(Cl)c1)C(=O)N2` registered a Papp of 97.5 ×10⁻⁶ cm/s.
Turning to `CN1CCN(Cc2ccc(-c3ccc(C(C)(C)C#N)cc3)nc2)CC1`, the Papp was > 1000 ×10⁻⁶ cm/s.
In the case of `COc1cccc(CNc2ccc(S(=O)(=O)Nc3cccs3)cc2)c1O`, the Papp was found to be 572 ×10⁻⁶ cm/s.
Take `COC(=O)Nc1nc2ccc(Sc3ccccc3)cc2[nH]1`: the Papp worked out at 197 ×10⁻⁶ cm/s. This Papp is about 2.9-fold lower than that of the compound before.
Turning to `Cc1ccc(-c2cc(C(=O)Nc3cccc(S(=O)(=O)Nc4nccs4)c3)c3ccccc3n2)cc1C`, the Papp amounted to 22.3 ×10⁻⁶ cm/s. Compared with the last compound, the Papp is about 8.8-fold lower.
`CC(C)c1ccccc1-c1ncc(F)c(NCC2CCN(c3cccnc3)CC2)n1`: the Papp is > 1000 ×10⁻⁶ cm/s.
The compound `C#CCNC(=O)c1nc(-c2cccnc2)c2ccccn12` registered a Papp of 507 ×10⁻⁶ cm/s.
For `CN(C(=O)CSc1nc2ccc(NC(=O)c3ccc(F)cc3)cc2s1)c1ccccc1`, the Papp came to 741 ×10⁻⁶ cm/s. The Papp values of the last two compounds are within 1.5-fold of each other.
For `CCN1CCN(c2ncc3c(n2)CCN(Cc2cc(Br)cs2)C3)CC1` the value was 787 ×10⁻⁶ cm/s.
The value for `CN(C)C(=O)c1ccc(-c2cc[nH]c(=O)c2N)cc1` was 12.1 ×10⁻⁶ cm/s; that for `CCN(CC)CCNC(=O)C1CCN(c2nn3cc(-c4ccc(F)cc4)nc3s2)CC1` was > 1000 ×10⁻⁶ cm/s; that for `Cc1noc(C)c1CN1CCNc2cc(Nc3ccccc3)ncc2C1` was 978 ×10⁻⁶ cm/s.
For `Cc1ccc(S(=O)(=O)N[C@@H](Cc2ccccc2)C(=O)CCl)cc1` the value was 323 ×10⁻⁶ cm/s; for `Cc1ccnc(NC(=S)N2CCN(c3ccc(Cl)c(Cl)c3)CC2)c1`, > 1000 ×10⁻⁶ cm/s.
Compound `Fc1cccc(-c2ccc(Nc3nc(-c4ccncc4)nc4ccccc34)cc2F)c1` gave a Papp of 49 ×10⁻⁶ cm/s.
`Cc1ccc(-c2nc3ccccc3o2)cc1NC(=O)COc1ccccc1` yielded a Papp of 791 ×10⁻⁶ cm/s.
The value for `Cc1cnc(-c2ccccc2C(C)C)nc1NCC1CCN(c2cccnc2)C1` (centres undefined) was > 1000 ×10⁻⁶ cm/s.
In turn, `COc1ccc(-n2c(C)c(C(C)=O)c3cc(O)ccc32)cc1` returned a Papp of 415 ×10⁻⁶ cm/s.
As for `O=C(Nc1nc(-c2ccccc2)cs1)c1ccncc1NS(=O)(=O)c1ccc2c(c1)CCC2`, the Papp was > 1000 ×10⁻⁶ cm/s.
`O=C(c1ccc2c(c1)ncn2-c1ccc(C(F)(F)F)cc1)N1CCCCC1`: the Papp is > 1000 ×10⁻⁶ cm/s.
For the compound `O=C(Nc1ncc(Cc2ccc(C(F)(F)F)cc2)s1)c1cnc(-c2ccccc2)[nH]1`, the apparent permeability coefficient (Papp) is < 1 ×10⁻⁶ cm/s.
Turning to `NC1CCN(c2nc(-c3ccc(Br)cc3)cs2)CC1`, the Papp was > 1000 ×10⁻⁶ cm/s.
`CCCCCCN(CCCCCC)C(=O)Cc1c(-c2ccc(F)cc2)[nH]c2ccccc12`: the Papp stood at 11.7 ×10⁻⁶ cm/s.
`CCc1ccc(-n2nnc(-c3nsc(NC(=O)c4ccccc4Cl)n3)c2C)cc1` had a Papp of 615 ×10⁻⁶ cm/s.
With `O=C1CCCC2=C1C(c1[nH]ncc1Cl)N=C(Nc1nc3c(Cl)cccc3o1)N2` (centres undefined), the Papp is 162 ×10⁻⁶ cm/s.
For `Fc1ccc(CNc2nc(-c3ccncc3)nc3ccccc23)cc1F` the value was 569 ×10⁻⁶ cm/s; for `Cc1cnc(-c2ccccc2C(F)F)nc1NCc1ccc(-n2ccnn2)cc1`, > 1000 ×10⁻⁶ cm/s; for `Cc1nc(-c2ccccc2)cc([C@H]2CN3CC[C@H]2C[C@@H]3CNC2CCOCC2)n1`, 369 ×10⁻⁶ cm/s.
For the compound `Cc1nc([N+](=O)[O-])cn1-c1ccc([N+](=O)[O-])cc1`, the Papp was 27.9 ×10⁻⁶ cm/s.
For `O=S(=O)(Nc1nccs1)c1ccc(NCc2ccccc2O)cc1`, the apparent permeability coefficient (Papp) amounted to 1.15 ×10⁻⁶ cm/s.
`Cc1cn(-c2cc(NC(=O)c3ccc(C)c(Nc4nccc(-c5cccnc5)n4)c3)cc(C(F)(F)F)c2)cn1` displayed a Papp of 676 ×10⁻⁶ cm/s.
Turning to `COc1cc(Nc2nc(-c3ccncc3)nc3ccccc23)ccc1NS(C)(=O)=O`, the apparent permeability coefficient (Papp) is > 1000 ×10⁻⁶ cm/s.
Regarding `CCN1C(=O)c2ccccc2S(=O)c2ccc(NC(=O)Cc3ccc(OC)cc3)cc21` (centres undefined), the Papp was > 1000 ×10⁻⁶ cm/s.
The value for `CN1C(=O)CN=C(c2ccc[nH]2)c2cc(Cl)ccc21` was 714 ×10⁻⁶ cm/s.
For the compound `CN(C)CCOc1ccc(C(=C(CCCl)c2ccccc2)c2ccccc2)cc1`, the apparent permeability coefficient (Papp) was < 1 ×10⁻⁶ cm/s.
Turning to `COc1cccc(CNc2ccc(S(=O)(=O)Nc3cc(C)on3)cc2)c1O`, the Papp came out at 62.9 ×10⁻⁶ cm/s.
For the compound `O=C(Nc1nc(-c2ccccc2)cs1)c1ccncc1NS(=O)(=O)c1ccc(F)cc1Cl`, the apparent permeability (Papp) was > 1000 ×10⁻⁶ cm/s.
With `COc1cccc(C(=O)Nc2ccc3c(N4CCOCC4)ncnc3c2)c1`, the Papp was found to be 39 ×10⁻⁶ cm/s.
